Assay results from US11629139B2 (priority 2017, dated 2023).

Key:
[1] = human, microsomes
[2] = plasma
[3] = pH 7.4
[4] = mouse, in vivo; for AUClast / T1/2 / Tmax: po, 50 mg/kg
[5] = tested on: vesicular stomatitis virus particles (VSV) pseudotyped with EboV Zaire GP; conditions: cited from earlier work
VSV G = conditions: cited from earlier work
[6] = tested on: Lassa fever virus (LFV) GP; conditions: cited from earlier work
EBOV G-A82 = experiment: microbe, parasite or virus in culture; format: cell-based, Ebola virus; conditions: Zaire ebolavirus, HeLa, read-out: EBOV G-A82 (Hela) EC50
EBOV Kikwit = experiment: microbe, parasite or virus in culture; format: cell-based, Ebola virus; conditions: Zaire ebolavirus, HeLa, read-out: EBOV Kikwit(Hela) EC50
EBOV Makona = experiment: microbe, parasite or virus in culture; format: cell-based, Ebola virus; conditions: Zaire ebolavirus, HeLa, read-out: EBOV Makona (Hela) EC50
Ebola virus (Mayinga) = experiment: microbe, parasite or virus in culture; format: cell-based; conditions: Zaire ebolavirus, HeLa, read-out: EBOV Maiynga) (Hela) EC50
in vivo = conditions: mouse, po
in vitro = conditions: mouse, plasma, m-plasma protein binding

| SMILES | MLM T½ (mouse, microsomes) [min] | MLM, T½ (min) (ritonavir 3 μM) (mouse, microsomes) | HLM T½ [1] [min] | Mouse PPB (% bound) [2] [%] | Kinetic solubility [3] [µM] | C@12 hr [4] [µM] | Cl_obs [4] [mL/min/kg] | AUClast [4] [µM·h] | T1/2 [4] [h] | Tmax [4] [h] | other results |
| --- | --- | --- | --- | --- | --- | --- | --- | --- | --- | --- | --- |
| [2H]C([2H])(c1cc(Cl)ccc1N)N1CCN(C(=O)CNC(=O)C2CC23CCC(F)(F)CC3)CC1 (single isomer, unassigned; (-)) [(−)-1413] | 3 | 91 | 16 | 87.9 | 78 | 2.0 | 15.5 | 120.9 | 3.2 | 1.7 | Increase of stability in mouse liver microsomes by ritonavir: 10- to 30 fold |
| [2H]C([2H])(c1cc(Cl)ccc1NCc1ccc(S(C)(=O)=O)cc1)N1CCN(C(=O)CNC(=O)C2CC23CCC(F)(F)CC3)CC1 (single isomer, unassigned; (-)) [(−)-1503] | 2 | 87 | 1 | 99.8 | 4 | 5.7 | 12.5 | 107.5 | 1.7 | 7.3 | Plasma concentration after 12 hours relative to in vitro IC50 against rVSV EBOV infection in 50% human serum [4]: 50 fold |
| O=C(CC12CC3CC(CC(C3)C1)C2)NCC(=O)N1CCN(Cc2ccccc2)CC1 [Compound 3.0] | – | – | – | – | – | – | – | – | – | – | Infection of Vero cells by VSV pseudotyped with EboV Zaire GP [5]: inhibits infection; Infection of Vero cells by VSV particles with VSV G (VSV G): not; Infection of Vero cells by VSV pseudotyped with Lassa fever virus (LFV) GP [6]: not |
| CS(=O)(=O)c1ccc(COc2ccc(Cl)cc2CN2CCN(C(=O)CNC(=O)C3CC34CCC(F)(F)CC4)CC2)cc1 (centres unmarked) [Compound 1476] | – | – | – | – | – | 14 | – | – | – | – | EC50 (EBOV G-A82): < 80 nM; EC50 (EBOV Kikwit): 210 nM; EC50 (EBOV Makona): 140 nM; EC50 (Ebola virus (Mayinga)): 420 nM; m-μsome T1/2 (with 3 μM of Ritonavir) (mouse, microsomes, pH 7.4): 170 min; AUC (in vivo): 314 µM·h; Cmax (in vivo): 23 µM; half-life (in vivo): 366 min; fraction unbound (in vitro): 0.013 |
